Assay results as given in patent EP4692089A1, “NITROGEN-CONTAINING HETEROCYCLIC COMPOUND AS AAK1 INHIBITOR” (Alicorn Pharmaceutical Co., Ltd., priority 2023, dated 2024).
Several values for one entry are separate records, joined by “and”; a condition that tells them apart may be missing. Equal entries are not always repeated.

Legend:
AAK1 (30-330) protein [1] = target: T1, AAK1 (30-330) protein (Homo sapiens, UniProt Q2M2I8); experiment: CETSA test of binding ability to AAK1 protein (Western blot)
T1 construct: (His)6x (N); TEV protease cleavage site (N); made in house; host or cells: Escherichia coli BL21(DE3)
Protocol: Experimental objective: To detect the binding ability of compounds to AAK1 protein by means of a CETSA experiment.
Background principle: The CETSA experiment is a molecular detection means for measuring the affinity between drugs and target proteins. […] When a candidate drug is co-incubated with a target protein, if the candidate drug is an inhibitor of AAK1, it can bind to AAK1. […] On the contrary, the stability of the AAK1 protein after heating will be poorer, and the amount of the detected protein will be lower. In this way, the binding ability of the drug to the target protein can be evaluated, which is used for the screening of AAK1 protein inhibitors.
(§1) Expression of AAK1 (30-330) protein: The AAK1 sequence (residues 30-330) was cloned into the pET24N vector with an N-terminal (His)6x tag and a tobacco etch virus (TEV) protease cleavage site. The constructed vector was transformed into Escherichia coli BL21(DE3). When the bacteria were cultured with shaking to reach an OD value of 0.6, 1 mM IPTG was added. […] The bacterial cells were collected and subjected to ultrasonic disruption. The supernatant was obtained by centrifugation, and the protein was purified using Ni-NTA. After dialysis, the concentration and purity of the protein were determined.
CETSA sample preparation: Samples were incubated with candidate drugs, control drugs, and control reagents separately for 30 minutes. Each group of samples was heated at approximately 10 pre-set temperature points. After being returned to room temperature, the samples were centrifuged at 20000 g, and the supernatants were collected. Protein samples were denatured by heating at 100°C for 10 minutes with a sample buffer. After the samples were returned to room temperature, Western blot detection was performed on them; the protein loading amount was controlled at 20 µg. […] The same operations were followed, and Western blot detection was conducted. Protein electrophoresis: The voltage for the stacking gel was set at 60 V, and that for the separating gel was set at 120 V. After electrophoresis, electrotransfer was initiated. Electrotransfer conditions were set at 250 mA for 2 h. Blocking with 5% BSA was performed for 1 h. A specific primary antibody was added, and incubation was carried out overnight at 4°C on a shaker. Washing with TBST was conducted 4 times, with 2.5 minutes each time. A secondary antibody was incubated on a shaker at room temperature for 1 h. Washing with TBST was conducted 4 times, with 2.5 minutes each time. ECL was used for development to detect the expression levels of AAK1 protein in different groups and at each temperature point. Western blot bands were processed and converted using Image J and GraphPad software to calculate EC50.

AAK1 (30-330) protein [2] = target: T1, AAK1 (30-330) protein; experiment: AAK1 kinase assay (ADP generated, detected by HPLC); assay type: biochemical; conditions: 3.5 nM AAK1, 22 µM ATP, 25°C, 3 h
From the text: Experimental objective: The objective of this test example is to test the effect of compounds on AAK1 kinase function.
Background principle: AAK1 phosphorylates the threonine residue in the micro-subunit of AP2 (AP2M1). In this process, ATP provides phosphate groups to generate ADP. Therefore, the activity of AAK1 kinase can be evaluated by detecting the amount of ADP generated.
as §1
The reaction mixture was incubated in a metal bath at 25°C for 3 h. The reaction was terminated by adding 1% SDS, and the amount of ADP generated was detected by HPLC. IC50 values were calculated using GraphPad software.

[3] = test system: streptozotocin (STZ)-induced peripheral neuropathic pain (DPNP) in diabetic rat models; experiment: Efficacy test in diabetic peripheral neuropathic pain (DPNP), Von Frey pain threshold; assay type: in vivo, SD rats; conditions: for MWT (g) After modeling: before administration; for MWT (g) 2h: 2 h after administration; for MWT (g) 4 h: 4 h after administration; for MWT (g) 5 h: 5 h after administration; for MWT (g) 6h: 6 h after administration; for duration of analgesia: time after administration
Protocol: Experimental methods: After the adaptation period, the rats were tested for baseline plantar pain threshold using the Von Frey (Up-Down method) before modeling. Subsequently, except for the blank control group, all other rats were fasted for 16 hours with free access to water and then intraperitoneally injected with streptozotocin for modeling (65 mg/kg; 2 mL/kg). One week after modeling, blood was collected from the tail tip to detect blood glucose levels after a 4-hour fast. Rats with blood glucose levels higher than 16.7 mmol/L were considered diabetic.

[4] = Pharmacokinetic test in SD rats
Protocol: Experimental objective: The objective of this experimental example is to test the pharmacokinetic profile of compounds in SD rats.
Route of administration: The animals were weighed before administration, and the dose was calculated based on their body weight. Administration was performed via intravenous injection and oral gavage.
Blood collection time points: After administration, for IV group: 0.083 h, 0.25 h, 0.5 h, 1 h, 2 h, 4 h, 8 h, and 24 h; for PO group: 0.25 h, 0.5 h, 1 h, 2 h, 4 h, 6 h, 8 h, and 24 h. Blood was collected via the jugular vein, with approximately 0.2 mL collected for each sample. The blood samples were anticoagulated with K2-EDTA and placed on ice after collection.
Plasma sample processing: After collection, the blood samples were placed on ice and centrifuged within 1 hour to separate plasma (centrifugation conditions: 6800g, 6 minutes, 2-8°C). The plasma samples were stored in a -80°C refrigerator before analysis.
Result analysis: Pharmacokinetic parameters were calculated using Phoenix WinNonlin 7.0 based on the plasma concentration data at different time points.

[5] = Blood-brain distribution in DPNP model rats; conditions: SD, rat; for concentration at 6 h: oral; for Kp at 6 h: brain/plasma, po
Protocol: Experimental objective: This experiment aims to investigate the analgesic effect of test compounds on streptozotocin (STZ)-induced peripheral neuropathic pain (DPNP) in diabetic rat models and the brain-blood distribution of the compounds associated with the efficacy, via single oral gavage (ig.) administration.
After successful modeling, the baseline plantar pain threshold of the rats was tested using the Von Frey (UP-Down method) as the baseline pain threshold before administration, and the rats were evenly grouped according to their pain thresholds. The groups included a blank control group, a model group, a positive control group (1 mg/kg), a Compound 26 (0.5 mg/kg) group, and a Compound 26 (1 mg/kg) group. The next day, the rats were administered the vehicle or corresponding drugs. At 2 h, 3 h, 4 h, 5 h, and 6 h after administration, the pain threshold of the plantar region on the affected side of rats was determined using Von Frey filaments to calculate the pain threshold improvement rate of the test compounds against neuropathic pain in diabetic rats, and to observe the time-effect relationship. After the experiment, rats from groups G3-G5 (numbers 1-3 per group) were sacrificed, and plasma and brain tissue samples were collected for testing.

[6] = male, SD, rat, plasma, po, 3 mg/kg

T1 sequence (Q2M2I8 30-330): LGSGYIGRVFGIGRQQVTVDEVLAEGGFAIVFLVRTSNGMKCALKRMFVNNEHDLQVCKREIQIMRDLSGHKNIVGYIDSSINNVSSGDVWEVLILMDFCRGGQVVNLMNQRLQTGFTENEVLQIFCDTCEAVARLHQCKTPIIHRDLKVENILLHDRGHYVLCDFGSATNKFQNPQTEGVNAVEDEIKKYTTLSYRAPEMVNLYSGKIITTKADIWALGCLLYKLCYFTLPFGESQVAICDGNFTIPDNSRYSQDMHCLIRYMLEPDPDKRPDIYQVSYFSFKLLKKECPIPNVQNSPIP

EC50 (AAK1 (30-330) protein [1]): 10 to 100 nM
IC50 (AAK1 (30-330) protein [2]): 86.3 nM
in vivo exposure compared with the positive control ([4]; SD rats, versus BMS-986176): approximately four times
peak concentration (Cmax) compared with the positive control ([4]; SD rats, versus BMS-986176): approximately four times
AUC(0-inf) [4, 6]: 4130 ng·h/mL
AUC(0-t) [4, 6]: 4010 ng·h/mL
Cmax [4, 6]: 325 ng/mL
MRT inf [4, 6]: 10.9 h
MRT last [4, 6]: 8.09 h
Tmax [4, 6]: 3.1 h
half-life [4, 6]: 6.98 h
concentration at 6 h ([5]; brain, 0.5 mg/kg): 62.5 ng/mL and 688 ng/g
concentration at 6 h ([5]; brain, 1 mg/kg): 120 ng/mL and 1320 ng/g
Kp at 6 h ([5]; 0.5 mg/kg): 17.9
Kp at 6 h ([5]; 1 mg/kg): 17.6
concentration at 6 h ([5]; plasma, 0.5 mg/kg): 38.5 ng/mL
concentration at 6 h ([5]; plasma, 1 mg/kg): 75.3 ng/mL
Compound: CC(C)C[C@](C)(N)COc1ccc(-c2c[nH]c3ncc(F)cc23)nc1C(F)F [Compound 26, (S)-1-{[2-(difluoromethyl)-6-(5-fluoro-1H-pyrrolo[2,3-b]pyridin-3-yl)pyridin-3-yl]oxy}-2,4-dimethylpentan-2-amine]
MWT (g) After modeling ([3]; 0.5 mg/kg group, x±s, n=5): 6.97 ± 2.16 g
Pain threshold improvement rate 2h ([3]; 0.5 mg/kg single ig.): 50.87
MWT (g) 2h ([3]; 0.5 mg/kg single ig., x±s, n=5): 7.50 ± 2.37 g
Pain threshold improvement rate 3 h ([3]; 0.5 mg/kg single ig.): 54.93
MWT (g) 3 h ([3]; 0.5 mg/kg single ig., 3 h after administration, x±s, n=5): 9.63 ± 3.40 g
Pain threshold improvement rate 4h ([3]; 0.5 mg/kg single ig.): 35.29
MWT (g) 4 h ([3]; 0.5 mg/kg single ig., x±s, n=5): 6.23 ± 2.10 g
Pain threshold improvement rate 5 h ([3]; 0.5 mg/kg single ig.): 28.18
MWT (g) 5 h ([3]; 0.5 mg/kg single ig., x±s, n=5): 5.61 ± 3.00 g
Pain threshold improvement rate 6h ([3]; 0.5 mg/kg single ig.): 24.02
MWT (g) 6h ([3]; 0.5 mg/kg single ig., x±s, n=5): 4.82 ± 1.07 g
duration of analgesia ([3]; 0.5 mg/kg): ≤ 4 h
MWT (g) After modeling ([3]; 1 mg/kg group, x±s, n=5): 7.28 ± 2.09 g
Pain threshold improvement rate 2h ([3]; 1 mg/kg single ig.): 71.05
MWT (g) 2h ([3]; 1 mg/kg single ig., x±s, n=5): 12.72 ± 3.12 g
Pain threshold improvement rate 3 h ([3]; 1 mg/kg single ig.): 58.89
Pain threshold improvement rate 4h ([3]; 1 mg/kg single ig.): 59.53
MWT (g) 4 h ([3]; 1 mg/kg single ig., x±s, n=5): 9.96 ± 4.93 g
Pain threshold improvement rate 5 h ([3]; 1 mg/kg single ig.): 20.88
MWT (g) 5 h ([3]; 1 mg/kg single ig., x±s, n=5): 5.10 ± 1.55 g
Pain threshold improvement rate 6h ([3]; 1 mg/kg single ig.): 9.51
MWT (g) 6h ([3]; 1 mg/kg single ig., x±s, n=5): 4.05 ± 0.66 g
duration of analgesia ([3]; 1 mg/kg): ≤ 4 h
